Converted amounts (≈) assume the structure as drawn.

A word on the MIC: it is the smallest concentration in the dilution series that meets the test's criterion for growth inhibition.

Data set [1] deals with Fibroblasts. Put plainly: SRS-SHG microscopy of fibroblasts exposed to retinol. The data set is classed as cell-based. Particulars: 0.31 μg/mL or 0.25 μg/mL; days 1, 3 and 7. As for the experimental part:
Fibroblasts were exposed to compositions containing 0.31 μg/mL or 0.25 μg/mL, and a control sample with no retinol, over a period of 7 days. SRS-SHG microscopy was used to determine absorption of the retinol by the fibroblasts at days 1, 3 and 7 after exposure.

The subject of data set [2] is Fibroblasts. The experiment in a line: Toxicity of retinol to fibroblasts. The data set is classed as cell-based.
The subject of data set [3] is P. aeruginosa (NCTC12903). Put plainly: MIC, broth microdilution. The data set is classed as cell-based, Pseudomonas aeruginosa. Particulars: for MIC: Pseudomonas aeruginosa, NCTC12903. As for the experimental part: (§1) Staphylococcus aureus (NCTC12493; MRSA) and Pseudomonas aeruginosa (NCTC12903) were stored in Pro-Lab Diagnostics Microbank (Fisher, Basingstoke UK) tubes at −80° C. before streaking onto Nutrient Agar (Oxoid, Basingstoke, UK) and incubated at 37° C., aerobically for 18 hours.
(§2) Minimum inhibitory concentrations (MICs) were determined using the broth microdilution method (EUCAST, Clinical Microbiology and Infection (2003), 9(8)). The inoculated liquid culture (grown dynamically overnight at 37° C. in MHB) was adjusted to obtain a ~0.1 OD at 600 nm, equivalent to a 0.5 McFarland Standard. A range of concentrations (diluted in MHB) for each of the compounds were prepared in 96-well plates, followed by the addition of the inoculated media. The plates were then incubated statically for 18 hours at 37° C. Following the incubation period, the lowest concentration of compound presenting an inhibition of bacterial growth was labelled the MIC.
Background: In broth dilution the organism is exposed to a series of concentrations in liquid medium.

The nature of data set [4]: Ex-vivo skin penetration, Franz diffusion cells, SRS imaging. The data set is classed as in vitro ADME, pig. As to the method: Skin penetration studies were performed on dermatomed porcine skin, dosed using vertical Franz diffusion cells.
A scalpel was used to cut each Franz cell disc into a smaller portion for sectioning, and was sanitised with ethanol between samples. A fresh cryostat blade was used for each sample. The cryostat temperature was set to −33° C., and samples equilibrated in the cryostat for approximately 45 minutes prior to sectioning.
After 24 hours, the skin surface was cleaned and cross-sections 30 μm thick were prepared using cryosectioning and mounted onto glass coverslips. SRS (stimulated raman spectroscopy) imaging was used to observe the penetration of the composition through the skin.
SRS imaging used a Leica SP8 microscope with SRS and CARS. A PicoEmerald-S laser system output two pulsed 2 ps laser beams (a 1031 nm Stokes beam spatially and temporally overlapped with a tuneable pump beam). The Stokes beam was modulated at 20 MHz and stimulated Raman loss signals were detected in transmission using a lock-in amplifier (UHFLI, Zurich instruments). CARS and SHG/fluorescence signals were epi-detected in separate PMT channels. A water immersion×25 magnification lens (0.95 NA, Leica) was used. A short working distance air condenser (0.9 NA, Leica) was used. Laser power was 30%, which corresponded to approximately 10 mW for the pump beam and 30 mW for the Stokes beam at the sample. […]

Data set [5] relates to S. aureus (NCTC12493; MRSA). Put plainly: MIC, broth microdilution. Particulars: for MIC: Staphylococcus aureus. The data set is classed as cell-based, Staphylococcus aureus. As to the method:
as §1, §2

Data set [6] concerns P. aeruginosa (NCTC12903) biofilm. The experiment in a line: Crystal violet biofilm clearance assay. The data set is classed as cell-based, Pseudomonas aeruginosa. The conditions noted are these: for amount of biofilm present after treatment (CV stain, OD 600 nm): FIG. 2, 0.000625% PHMB, 10% TPGS, 10% EM, 6.25% EtOH, dosed at different days, 24 hours, vs untreated control; for percentage biofilm remaining / amount of biofilm remaining: FIG. 3, 0.1% PHMB, 10% TPGS or both; for percentage biofilm remaining: treated at day 0; for amount of biofilm remaining: treatment at day 1, 2 or 3. As to the method:
as §1
(§3) The two strains of bacteria were produced using different media, with no flocculation occurring. S. aureus was produced using Dulbecco's Modified Eagle Medium and took five to seven days to grow a mature biofilm. P. aeruginosa was produced using M9 minimal media and 1% glucose media and took three days to grow a mature biofilm. Alternatively, Luria-Bertani (LB) broth could be used to grow P. aeruginosa.
(§4) The biofilm growth method and visualisation/analysis techniques were followed from J. Merritt et al. (Curr Protoc Microbiol. (2005); Chapter 1:Unit 1B.1), with modifications. S. aureus (NCTC12493) was grown in DMEM and P. aeruginosa (NCTC12903) was grown in M9 minimal media+1% glucose. Inoculated liquid culture was diluted in 1:100 in their respective medias. Into 96-well plates, 100 μL of the inoculant was added to each well. Following this, the plate was covered with a lid and incubated at 37° C. for 24-hour intervals of up to 7 days, aerobically. The compounds were added and incubated at 37° C. for a further 24 hours. Planktonic bacteria were removed using a pipette, and the biofilms were washed with Milli-Q water. To each well, 125 μL of 0.1% crystal violet (CV) solution was added and left at room temperature for 10-15 minutes. After this, the 0.1% CV solution was removed, and the well was washed until the waste ran clear. The stain was left to air-dry, before 200 μL 30% acetic acid was added to each well for 15 minutes on a plate shaker. To a new 96-well plate, 125 μL stained biofilm solution was transferred and the optical density was read at 600 nm. A comparison was made between the uninhibited biofilm and any biofilm reductions capabilities of the added compounds.
(§5) The candidate compounds were each, therefore, applied at their respective MIC values.
(§6) Bacterial growth kinetics of S. aureus grown in DMEM and P. aeruginosa grown in M9 minimal media+1% glucose were determined. The amount of biofilm remaining was determined using the CV staining method as described above.

Data set [7] relates to S. aureus (NCTC12493) biofilm. Put plainly: Crystal violet biofilm clearance assay. In kind it is cell-based, Staphylococcus aureus. Particulars: for amount of biofilm present after treatment (CV stain, OD 600 nm): FIG. 2, 0.000625% PHMB, 10% TPGS, 10% EM, 6.25% EtOH, dosed at day 0 to 7, 24 hours, vs untreated control; for percentage biofilm remaining / amount of biofilm remaining: FIG. 3, 0.1% PHMB, 10% TPGS or both; for percentage biofilm remaining: treated at day 0; for amount of biofilm remaining: treatment at day 1, 2 or 3. As to the method:
as §1, §3, §4, §5, §6

In the next data set the test system is S. aureus (NCTC12493). The experiment in a line: CFU count after treatment of biofilm. In kind it is cell-based, Staphylococcus aureus. The conditions noted are these: FIG. 3; 10% TPGS or 0.1% PHMB with 10% TPGS; treated on any day. As to the method: (§7) The amount of biofilm remaining was determined using the CV staining method as described above. CFU count was determined by the following method: The inoculated liquid culture (grown dynamically overnight at 37° C. in liquid growth media) was spun down in a centrifuged (at max (13.3) speed for 5 minutes) (reference). The supernatant was removed and resuspend in PBS (1:100 dilution). Into each well, 20 μL of inoculated culture LB broth was added to 180 μL LB broth. […] For the untreated wells, 1 μL of PBS was added. The 96-well plate was placed in a TECAN measuring at OD600 over 24 hours at 15-minute intervals. Resulting growth kinetic experiments were conducted using mid-logarithmically growing cultures. […] Following this, the wells were homogenised, and 20 μL samples were plate spotted onto nutrient agar (NA). These plates were incubated for 18 hours at 37° C. before colonies were counted.

Data set [8] concerns P. aeruginosa (NCTC12903). The experiment in a line: CFU count after treatment of biofilm. In kind it is cell-based, Pseudomonas aeruginosa. Particulars: FIG. 3; 10% TPGS or 0.1% PHMB with 10% TPGS; treated on any day. As for the experimental part: as §7
Where [9] appears, read: concentration before inoculation, 18 hours at 37° C., vehicle ethanol or water.
Setting [10] is: concentration before inoculation, 18 hours at 37° C., vehicle ethanol, water or none.
Where [11] appears, read: vehicle TPGS (curcumin solubilised in TPGS).

For the molecule `CC1=C(/C=C/C(C)=C/C=C/C(C)=C/CO)C(C)(C)CCC1` [Retinol], the “response of fibroblasts (SHG signals outside of nuclei)” value with Fibroblasts [1] was “concentration and time dependent response”. In the data set on Fibroblasts [2], the “concentration not toxic to fibroblasts” value is at most 6000 ng/mL. Further, the minimal inhibitory concentration (MIC) in data set [3] (setting [9]) and in [5] (setting [9]) was 50 mg/mL (≈ 175 mM) each time. For the same molecule, the “MIC, P. aeruginosa” value in data set [3] (setting [10]) worked out at 5 w/v %. For the same molecule, in [4] (composition comprising retinol and TPGS applied to pig skin for 24 hours), the “depth through the skin down to which retinol was observed” value came to 60 μm. Also, in data set [4] (similar experiment, composition including PHMB (1 wt %)), the “penetration of the retinol into the skin” value is “did not show penetration”. In [5] (setting [10]), the “MIC, S. aureus” value is listed as 5 w/v %.

As for `CCO` [Ethanol], the “amount of biofilm present after treatment (CV stain, OD 600 nm)” value (shortened to “amount of biofilm present”) in data set [6] is recorded as “little to no effect”; in [7], “at TO there was an increase in biofilm”. The “MIC, P. aeruginosa” value in data set [3] (setting [10]) is 6.25 w/v %. For the same molecule, the “MIC, S. aureus” value in [5] (setting [10]) was found to be 6.25 w/v %.

“tocopheryl polyethylene glycol succinate [TPGS]”: the “amount of biofilm present” value was “the most effective compound” in [6] and “a reduction in the amount of biofilm present” in [7]. In addition, the percentage biofilm remaining result in [6] and in data set [7] was “fully reducing the biofilm remaining” each time. Besides, the “amount of biofilm remaining” value in data set [6] and in data set [7] was “effective” throughout. The CFU count result (in the data set with S. aureus (NCTC12493); in data set [8]) was “remained substantially constant” in each case. Moreover, the “concentration inhibiting P. aeruginosa growth (MIC)” value in data set [3] came out at 20 % v/v. For the same molecule, the “MIC, P. aeruginosa” value in [3] (setting [9]) is “(200) mg/mL”; in data set [3] (setting [10]), 20 w/v %. In addition, the “concentration inhibiting S. aureus growth (MIC)” value in data set [5] was found to be 10 % v/v. Also, the “MIC, S. aureus” value was “(200) mg/mL” in [5] (setting [9]) and 20 w/v % in data set [5] (setting [10]).

For the molecule `COc1cc(/C=C/C(=O)CC(=O)/C=C/c2ccc(O)c(OC)c2)ccc1O` [Curcumin], the MIC in data set [3] (setting [9]) and in data set [5] (setting [9]) was 2 mg/mL (≈ 5.43 mM) in each case. For the same molecule, the “MIC, P. aeruginosa” value in data set [3] (setting [10]) came out at 0.2 w/v %; in [3] (setting [11]), 0.1 w/v %. Further, the entries for the “MIC, S. aureus” value in data set [5] (setting [10]) and in [5] (setting [11]) were 0.2 w/v % and 0.0125 w/v %, respectively.

Polysorbate 40: the “MIC, P. aeruginosa” value in data set [3] (setting [10]) was over 25% w/v %. In data set [5] (setting [10]), the “MIC, S. aureus” value is recorded as over 25% w/v %.

Consider polyhexamethylene biguanide [PHMB], for which, in [6], the “amount of biofilm present” value is “an increase in biofilm when dosed on T1”; the percentage biofilm remaining entry is “fully reducing the biofilm remaining”; the “amount of biofilm remaining” value is reported as “effective”. Further, the “concentration inhibiting P. aeruginosa growth (MIC)” value in data set [3] was 0.005 % v/v. In addition, in data set [3] (setting [10]), the “MIC, P. aeruginosa” value is given as 0.005 w/v %. Further, in [7], the “amount of biofilm present” value was “good biofilm clearance”; the percentage biofilm remaining entry is given as “fully reducing the biofilm remaining”; the “amount of biofilm remaining” value is given as “effective”. In data set [5], the “concentration inhibiting S. aureus growth (MIC)” value is given as 0.000625 % v/v. The “MIC, S. aureus” value in data set [5] (setting [10]) stood at 0.000625 w/v %.

These data come from patent US20260191900A1, “Biofilm Treatment” (Phytoceutical Limited, priority 2022, published 2026).
